Like-named read-outs stand apart in the source and are kept apart here.
Legend:
[1] = tested on: non-expressing oocytes; assay: cells; assay type: cell-based, Xenopus laevis; details: Xenopus laevis, total [3H]CQ transport; for inhibition at 500 µM: [test solute] = 0.5 mM; for inhibition at 1000 µM: [test solute] = 1 mM; for inhibition at 2000 µM: [test solute] = 2 mM
Method in brief: (§1)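 Each treatment used ten oocytes, repeated in at least four experiments on different days with oocytes from different frogs. Conditions: ND96 pH 5.5, 27.5 °C, 1.5 h; read-out by scintillation counting.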

[2] = molecular target: T1, PfCRT^3D7 (Plasmodium falciparum, UniProt Q8IBZ9); assay: cell-based; assay type: cell-based; details: total [3H]CQ transport; for inhibition at 500 µM: [test solute] = 0.5 mM; for inhibition at 1000 µM: [test solute] = 1 mM; for inhibition at 2000 µM: [test solute] = 2 mM
T1 sequence (Q8IBZ9 59-398): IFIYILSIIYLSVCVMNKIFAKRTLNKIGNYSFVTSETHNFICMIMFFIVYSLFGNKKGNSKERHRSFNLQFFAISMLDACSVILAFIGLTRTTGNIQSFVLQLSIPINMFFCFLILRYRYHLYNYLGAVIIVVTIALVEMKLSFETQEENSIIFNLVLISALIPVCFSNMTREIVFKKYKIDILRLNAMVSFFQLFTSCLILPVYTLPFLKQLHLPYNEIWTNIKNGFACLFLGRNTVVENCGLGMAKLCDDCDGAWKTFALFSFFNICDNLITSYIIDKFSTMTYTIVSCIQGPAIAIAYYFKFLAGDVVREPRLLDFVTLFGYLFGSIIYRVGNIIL
Method in brief: as §1

[3] = molecular target: T2, PfCRT^Dd2 (Plasmodium falciparum, UniProt Q9N623, A220S/I356T/K76T/M74I/N326S/N75E/Q271E/R371I); assay: [3H]CQ uptake into Xenopus oocytes, cis-inhibition by unlabelled solute; assay type: cell-based
T2 sequence (Q9N623 whole entry A220S/I356T/K76T/M74I/N326S/N75E/Q271E/R371I): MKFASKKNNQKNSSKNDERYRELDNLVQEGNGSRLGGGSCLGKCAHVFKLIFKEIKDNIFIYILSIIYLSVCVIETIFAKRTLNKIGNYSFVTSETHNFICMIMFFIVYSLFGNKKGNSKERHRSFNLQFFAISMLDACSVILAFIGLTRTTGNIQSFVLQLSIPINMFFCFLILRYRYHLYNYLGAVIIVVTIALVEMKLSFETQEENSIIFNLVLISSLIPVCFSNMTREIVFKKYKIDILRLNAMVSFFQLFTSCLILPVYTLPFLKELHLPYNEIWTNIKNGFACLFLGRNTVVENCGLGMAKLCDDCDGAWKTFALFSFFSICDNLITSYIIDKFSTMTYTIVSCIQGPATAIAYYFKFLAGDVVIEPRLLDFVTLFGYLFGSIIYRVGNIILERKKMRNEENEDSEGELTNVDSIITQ
Method in brief: as §1

[4] = molecular target: T3, PfCRT^Ecu1110 (Plasmodium falciparum, UniProt Q9N623, A220S/I356L/K76T/N326D); assay: as above; assay type: cell-based
T3 sequence (Q9N623 whole entry A220S/I356L/K76T/N326D): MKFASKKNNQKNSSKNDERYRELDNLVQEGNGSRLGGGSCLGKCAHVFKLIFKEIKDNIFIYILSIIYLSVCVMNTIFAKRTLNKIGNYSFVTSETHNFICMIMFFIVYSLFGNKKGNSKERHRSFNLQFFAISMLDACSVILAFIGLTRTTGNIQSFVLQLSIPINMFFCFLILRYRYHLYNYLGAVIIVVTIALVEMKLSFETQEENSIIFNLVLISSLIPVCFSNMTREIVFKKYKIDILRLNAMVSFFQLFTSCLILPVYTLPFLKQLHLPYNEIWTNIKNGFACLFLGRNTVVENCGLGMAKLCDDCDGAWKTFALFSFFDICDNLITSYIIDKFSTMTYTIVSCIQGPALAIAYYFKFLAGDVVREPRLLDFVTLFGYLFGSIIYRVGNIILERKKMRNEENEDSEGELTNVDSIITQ
Method in brief: as §1

[5] = tested on: non-expressing oocytes; assay type: cell-based, Xenopus laevis; details: total [3H]CQ transport; for Uptake of [3H]CQ (% non-expressing oocyte control), trans-stimulation: non-expressing oocytes, normalised to the oocyte type control; for Uptake of [3H]CQ (% PfCRTDd2 control), trans-stimulation, non-expressing oocytes: mean ± SEM, SEM
Method in brief: (§2)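 Oocytes (ten per treatment, ≥4 independent frogs/days) were preloaded by injecting VF-6 in 25 nL ND96 at pH 5.0, 5.5, 6.0 or 7.0, or Na^+-free choline buffer, then uptake run 1.5 h, 27.5 °C, ND96 pH 5.5 by default. Internal concentrations assumed ~400 nL oocyte volume.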

[6] = molecular target: T1, PfCRT^3D7; assay: cell-based; assay type: cell-based
Method in brief: as §2

[7] = molecular target: T2, PfCRT^Dd2; assay: cell-based; assay type: cell-based; details: […]; for activity at 45000 µM: [test solute]i = 45 mM (30 mM for some solutes due to solubility)
Method in brief: as §2

[8] = molecular target: T3, PfCRT^Ecu1110; assay: cell-based; assay type: cell-based; details: […]
Method in brief: as §2

[9] = molecular target: T4, PfNT1 (Plasmodium falciparum, UniProt Q8IDM6); assay: cell-based; assay type: cell-based; details: for activity at 5000 µM: total [3H]CQ transport
T4 construct: expressed in transfected cells; host or cells: Xenopus laevis oocytes (stage V-VI), cRNA-injected
T4 sequence (Q8IDM6 whole entry): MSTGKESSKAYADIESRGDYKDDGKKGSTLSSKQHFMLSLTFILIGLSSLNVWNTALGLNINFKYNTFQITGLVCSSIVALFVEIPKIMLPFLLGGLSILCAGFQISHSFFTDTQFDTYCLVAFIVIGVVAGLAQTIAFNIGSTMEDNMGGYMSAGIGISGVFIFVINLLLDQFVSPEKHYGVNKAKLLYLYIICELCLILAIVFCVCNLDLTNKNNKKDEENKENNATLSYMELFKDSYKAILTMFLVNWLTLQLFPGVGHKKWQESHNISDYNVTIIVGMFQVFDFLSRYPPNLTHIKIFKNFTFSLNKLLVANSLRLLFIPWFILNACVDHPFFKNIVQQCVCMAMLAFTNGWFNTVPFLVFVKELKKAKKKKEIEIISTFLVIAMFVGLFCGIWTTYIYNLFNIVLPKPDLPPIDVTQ
Method in brief: as §2

[10] = tested on: PfCRT; assay: Influx of VF-6 via PfCRT into the oocyte, solutes tested as potential co-substrates; assay type: cell-based, Plasmodium falciparum; parameters: key: X: Compounds that have been tested as potential co-substrates but are not required for influx of VF-6 via PfCRT into the oocyte; details: X marks the solute
[11] = tested on: PfCRT; assay: Test of solutes as potential co-substrates for influx of VF-6 via PfCRT into the oocyte; assay type: cell-based, Plasmodium falciparum; parameters: key: X: Compounds that have been tested as potential co-substrates but are not required for influx of VF-6 via PfCRT into the oocyte; details: X = tested
[12] = Oocyte, mean ± SEM, SEM, read-out: Uptake of [3H]CQ (% PfCRTDd2 control), cis-inhibition, non-expressing oocytes
[13] = non-expressing oocytes, normalised to the oocyte type control, read-out: Uptake of [3H]CQ (% non-expressing oocyte control), cis-inhibition
[14] = PfCRT3D7 oocytes, normalised to the oocyte type control, read-out: Uptake of [3H]CQ (% PfCRT3D7 control), cis-inhibition
[15] = mean ± SEM, SEM, read-out: Uptake of [3H]CQ (% PfCRTDd2 control), cis-inhibition, PfCRT3D7
[16] = read-out: PfCRT-mediated [3H]CQ transport, cis-inhibition (% PfCRTDd2 control)
[17] = read-out: Uptake of [3H]CQ (% PfCRTDd2 control), cis-inhibition, PfCRTDd2, SEM
[18] = read-out: PfCRT-mediated [3H]CQ transport, cis-inhibition (% PfCRTEcu1110 control)
[19] = read-out: Uptake of [3H]CQ (% PfCRTDd2 control), cis-inhibition, PfCRTEcu1110, SEM
[20] = read-out: Uptake of [3H]CQ (% PfCRTEcu1110 control), cis-inhibition
[21] = read-out: [3H]CQ transport (% PfCRTEcu1110 control), cis-inhibition, PfCRTEcu1110, SEM

Which results are given for `C[C@H](N)C(=O)O` [L-alanine]?
inhibition at 500 µM [1, 12]: 3.5 ± 0.08%; inhibition at 1000 µM [1, 12]: 3.7 ± 0.08%; inhibition at 2000 µM [1, 12]: 2.2 ± 0.06%; inhibition at 500 µM [1, 13]: 99 ± 5.3%; inhibition at 1000 µM [1, 13]: 100 ± 3.5%; inhibition at 2000 µM [1, 13]: 99 ± 1.4%; inhibition at 500 µM [2, 14]: 99 ± 3.2%; inhibition at 1000 µM [2, 14]: 100 ± 3.6%; inhibition at 2000 µM [2, 14]: 99 ± 4.6%; inhibition at 500 µM [2, 15]: 4.2 ± 0.03%; inhibition at 1000 µM [2, 15]: 3.1 ± 0.07%; inhibition at 2000 µM [2, 15]: 3.2 ± 0.08%; inhibition at 500 µM [3, 16]: 95 ± 2.1%; inhibition at 1000 µM [3, 16]: 94 ± 3.8%; inhibition at 500 µM [3, 17]: 97 ± 4.6%; inhibition at 1000 µM [3, 17]: 96 ± 3.3%; inhibition at 2000 µM [3, 17]: 98 ± 3.1%; inhibition at 500 µM [4, 18]: 93 ± 1.3%; inhibition at 1000 µM [4, 18]: 95 ± 1.7%; inhibition at 500 µM [4, 19]: 31 ± 2.5%; inhibition at 1000 µM [4, 19]: 32 ± 2.1%; inhibition at 2000 µM [4, 19]: 32 ± 0.9%; inhibition at 500 µM [4, 20]: 96 ± 2.5%; inhibition at 1000 µM [4, 20]: 97 ± 2.5%; inhibition at 2000 µM [4, 20]: 98 ± 4.1%; inhibition at 500 µM [4, 21]: 28 ± 0.6%; inhibition at 1000 µM [4, 21]: 29 ± 1.1%; inhibition at 2000 µM [4, 21]: 29 ± 1.5%; Uptake of [3H]CQ (% non-expressing oocyte control), trans-stimulation ([5]; [test solute]i = 5 mM): 99 ± 3.2 % non-expressing oocyte control; Uptake of [3H]CQ (% non-expressing oocyte control), trans-stimulation ([5]; [test solute]i = 45 mM (30 mM for some solutes due to solubility)): 99 ± 2.2 % non-expressing oocyte control; Uptake of [3H]CQ (% PfCRTDd2 control), trans-stimulation, non-expressing oocytes ([5]; [test solute]i = 5 mM (intracellular)): 3.1 ± 0.03 % PfCRTDd2 control; Uptake of [3H]CQ (% PfCRTDd2 control), trans-stimulation, non-expressing oocytes ([5]; [test solute]i = 45 mM (intracellular; 30 mM for some solutes due to solubility)): 3.3 ± 0.08 % PfCRTDd2 control; activity at 5000 µM ([6]; PfCRT3D7 oocytes, [test solute]i = 5 mM, total [3H]CQ transport, normalised to the oocyte type control, read-out: Uptake of [3H]CQ (% PfCRT3D7 control), trans-stimulation): 99 ± 3.6%; [3H]CQ transport (% PfCRT3D7 control), trans-stimulation, PfCRT3D7 ([6]; SEM): 0.3 ± 0.01 % PfCRT3D7 control; activity at 5000 µM ([6]; [test solute]i = 5 mM (intracellular), PfCRT3D7 oocytes, normalised to oocyte type control, read-out: PfCRT-mediated [3H]CQ transport, trans-stimulation (% PfCRT3D7 control)): 97 ± 2.1%; activity at 45000 µM ([6]; SEM, read-out: Uptake of [3H]CQ (% PfCRTDd2 control), trans-stimulation, PfCRT3D7): 3.3 ± 0.05%; activity at 45000 µM ([6]; read-out: PfCRT-mediated [3H]CQ transport, trans-stimulation (% PfCRT3D7 control)): 97 ± 2.3%; activity at 45000 µM ([6]; read-out: Uptake of [3H]CQ (% PfCRT3D7 control), trans-stimulation): 99 ± 3.2%; activity at 5000 µM ([6]; total [3H]CQ transport, [test solute]i = 5 mM (intracellular), mean ± SEM, SEM, read-out: Uptake of [3H]CQ (% PfCRTDd2 control), trans-stimulation, PfCRT3D7): 3.3 ± 0.05%; activity at 5000 µM ([7]; pH 5.5, read-out: PfCRT-mediated [3H]CQ transport, trans-stimulation (% PfCRTDd2 control), [test solute]i = 5 mM (intracellular), PfCRTDd2 oocytes, normalised to oocyte type control): 95 ± 1.9%; activity at 5000 µM ([7]; pH 5.5, read-out: Uptake of [3H]CQ (% PfCRTDd2 control), trans-stimulation, PfCRTDd2, total [3H]CQ transport, [test solute]i = 5 mM (intracellular), mean ± SEM, SEM): 97 ± 3.3%; activity at 5000 µM ([7]; pH 5.5, read-out: Uptake of [3H]CQ (% PfCRTDd2 control), trans-stimulation, PfCRTDd2 oocytes, [test solute]i = 5 mM, total [3H]CQ transport, normalised to the oocyte type control): 97 ± 3.3%; activity at 45000 µM ([7]; pH 5.5, read-out: Uptake of [3H]CQ (% PfCRTDd2 control), trans-stimulation, PfCRTDd2 oocytes, total [3H]CQ transport, normalised to the oocyte type control): 98 ± 1.9%; activity at 5000 µM ([7]; pH 5.5, read-out: [3H]CQ transport (% PfCRTDd2 control), trans-stimulation, PfCRTDd2, trans-stimulation, [test solute]i = 5 mM (injected), PfCRT-mediated component (background subtracted), mean ± SEM, SEM): 95 ± 1.9%; activity at 45000 µM ([7]; pH 5.5, read-out: [3H]CQ transport (% PfCRTDd2 control), trans-stimulation, PfCRTDd2, trans-stimulation, PfCRT-mediated component (background subtracted), mean ± SEM, SEM): 96 ± 3.2%; activity at 5000 µM ([8]; pH 5.5, read-out: PfCRT-mediated [3H]CQ transport, trans-stimulation (% PfCRTEcu1110 control), [test solute]i = 5 mM (intracellular), PfCRTEcu1110 oocytes, normalised to oocyte type control): 97 ± 1.4%; activity at 5000 µM ([8]; pH 5.5, read-out: Uptake of [3H]CQ (% PfCRTEcu1110 control), trans-stimulation, PfCRTEcu1110 oocytes, [test solute]i = 5 mM, total [3H]CQ transport, normalised to the oocyte type control): 99 ± 3.2%; activity at 45000 µM ([8]; pH 5.5, read-out: Uptake of [3H]CQ (% PfCRTEcu1110 control), trans-stimulation, PfCRTEcu1110 oocytes, [test solute]i = 45 mM (30 mM for some solutes due to solubility), total [3H]CQ transport, normalised to the oocyte type control): 101 ± 2.1%; activity at 5000 µM ([8]; read-out: Uptake of [3H]CQ (% PfCRTDd2 control), trans-stimulation, PfCRTEcu1110, total [3H]CQ transport, [test solute]i = 5 mM (intracellular), mean ± SEM, SEM): 35 ± 2.6%; activity at 45000 µM ([8]; read-out: Uptake of [3H]CQ (% PfCRTDd2 control), trans-stimulation, PfCRTEcu1110, total [3H]CQ transport, [test solute]i = 45 mM (intracellular; 30 mM for some solutes due to solubility), mean ± SEM, SEM): 36 ± 1.5%; activity at 5000 µM ([9]; PfNT1 oocytes, [test solute]i = 5 mM, normalised to the oocyte type control, read-out: Uptake of [3H]CQ (% PfNT1 control), trans-stimulation): 99 ± 3.1%; activity at 45000 µM ([9]; SEM, read-out: Uptake of [3H]CQ (% PfCRTDd2 control), trans-stimulation, PfNT1): 3.2 ± 0.02%; activity at 45000 µM ([9]; read-out: Uptake of [3H]CQ (% PfNT1 control), trans-stimulation): 99 ± 3.6%; activity at 5000 µM ([9]; [test solute]i = 5 mM (intracellular), mean ± SEM, SEM, read-out: Uptake of [3H]CQ (% PfCRTDd2 control), trans-stimulation, PfNT1): 2.2 ± 0.03%; Compounds that have been tested as potential co-substrates but are not required for influx of VF-6 via PfCRT into the oocyte [10]: X; Tested as potential co-substrate but not required for influx of VF-6 via PfCRT into the oocyte [11]: X
